Where two headings read alike, the source gives them in different places.
Test system: MRSA
Test: Potentiating effect of galloyl quinic acid derivatives for the antibacterial activity of oxacillin (agar plate dilution method, MIC)
Type: cell-based, Staphylococcus aureus
Procedure: According to the agar plate dilution method defined by Japan Society of Chemotherapy, MIC (Minimum inhibitory concentration) was determined. CAMHA was prepared by adding 50 mg/l of Ca-ion, 25 mg/l of Mg-ion, and 2% of NaCl to Mueller-Hinton II Agar (MHA), and it was used as a medium for use in the measurement of sensitivity. The bacterial liquid was incubated at 37° C. overnight and diluted to 10^6 CFU/ml with saline.
It was confirmed that the known substances shown below were contained in “Tara” and their MICs were determined as described in example 2 with respect to the effects of the combination use with oxacillin

[1] = ATCC 6538, with 12.5 μg/ml of compound
[2] = ATCC 6538, with 25 μg/ml of compound
[3] = ATCC 6538, with 50 μg/ml of compound
[4] = MRSA 1, with 12.5 μg/ml of compound
[5] = MRSA 1, with 25 μg/ml of compound
[6] = MRSA 1, with 50 μg/ml of compound
[7] = MRSA 2, with 12.5 μg/ml of compound
[8] = MRSA 2, with 25 μg/ml of compound
[9] = MRSA 2, with 50 μg/ml of compound
[10] = MRSA 3, with 12.5 μg/ml of compound
[11] = MRSA 3, with 25 μg/ml of compound
[12] = MRSA 3, with 50 μg/ml of compound
[13] = MRSA 4, with 12.5 μg/ml of compound
[14] = MRSA 4, with 25 μg/ml of compound
[15] = MRSA 4, with 50 μg/ml of compound
[16] = MRSA 5, with 12.5 μg/ml of compound
[17] = MRSA 5, with 25 μg/ml of compound
[18] = MRSA 5, with 50 μg/ml of compound
[19] = MRSA 6, with 12.5 μg/ml of compound
[20] = MRSA 6, with 25 μg/ml of compound
[21] = MRSA 6, with 50 μg/ml of compound
[22] = MRSA 7, with 12.5 μg/ml of compound
[23] = MRSA 7, with 25 μg/ml of compound
[24] = MRSA 7, with 50 μg/ml of compound
[25] = MRSA 8, with 12.5 μg/ml of compound
[26] = MRSA 8, with 25 μg/ml of compound
[27] = MRSA 8, with 50 μg/ml of compound
[28] = MRSA 9, with 12.5 μg/ml of compound
[29] = MRSA 9, with 25 μg/ml of compound
[30] = MRSA 9, with 50 μg/ml of compound
[31] = MRSA 10, with 12.5 μg/ml of compound
[32] = MRSA 10, with 25 μg/ml of compound
[33] = MRSA 10, with 50 μg/ml of compound
[34] = MRSA 12, with 12.5 μg/ml of compound
[35] = MRSA 12, with 25 μg/ml of compound
[36] = MRSA 12, with 50 μg/ml of compound
[37] = MRSA 16, with 12.5 μg/ml of compound
[38] = MRSA 16, with 25 μg/ml of compound
[39] = MRSA 16, with 50 μg/ml of compound
[40] = MRSA 17, with 12.5 μg/ml of compound
[41] = MRSA 17, with 25 μg/ml of compound
[42] = MRSA 17, with 50 μg/ml of compound
[43] = MRSA 18, with 12.5 μg/ml of compound
[44] = MRSA 18, with 25 μg/ml of compound
[45] = MRSA 18, with 50 μg/ml of compound
[46] = MRSA 20, with 12.5 μg/ml of compound
[47] = MRSA 20, with 25 μg/ml of compound
[48] = MRSA 20, with 50 μg/ml of compound
[49] = MRSA 21, with 12.5 μg/ml of compound
[50] = MRSA 21, with 25 μg/ml of compound
[51] = MRSA 21, with 50 μg/ml of compound
[52] = MRSA 22, with 12.5 μg/ml of compound
[53] = MRSA 22, with 25 μg/ml of compound
[54] = MRSA 22, with 50 μg/ml of compound
[55] = MRSA COL, with 12.5 μg/ml of compound
[56] = MRSA COL, with 25 μg/ml of compound
[57] = MRSA COL, with 50 μg/ml of compound
[58] = MSSA 1003, with 12.5 μg/ml of compound
[59] = MSSA 1003, with 25 μg/ml of compound
[60] = MSSA 1003, with 50 μg/ml of compound
[61] = MSSA 1010, with 12.5 μg/ml of compound
[62] = MSSA 1010, with 25 μg/ml of compound
[63] = MSSA 1010, with 50 μg/ml of compound
[64] = MSSA 1032, with 12.5 μg/ml of compound
[65] = MSSA 1032, with 25 μg/ml of compound
[66] = MSSA 1032, with 50 μg/ml of compound
[67] = RN4220, with 12.5 μg/ml of compound
[68] = RN4220, with 25 μg/ml of compound
[69] = RN4220, with 50 μg/ml of compound

## O=C(OC1CC(O)(C(=O)O)CC(O)C1OC(=O)c1cc(O)c(O)c(O)c1)c1cc(O)c(O)c(O)c1 (centres unmarked) [compound 4]
[1]
  Oxacillin MIC: <0.5 µg/mL
[2]
  Oxacillin MIC: <0.5 µg/mL
[3]
  Oxacillin MIC: <0.5 µg/mL
[4]
  Oxacillin MIC: >256 µg/mL
[5]
  Oxacillin MIC: >256 µg/mL
[6]
  Oxacillin MIC: >256 µg/mL
[7]
  Oxacillin MIC: >256 µg/mL
[8]
  Oxacillin MIC: 256 µg/mL
[9]
  Oxacillin MIC: 256 µg/mL
[10]
  Oxacillin MIC: 256 µg/mL
[11]
  Oxacillin MIC: 256 µg/mL
[12]
  Oxacillin MIC: 128 µg/mL
[13]
  Oxacillin MIC: >256 µg/mL
[14]
  Oxacillin MIC: >256 µg/mL
[15]
  Oxacillin MIC: >256 µg/mL
[16]
  Oxacillin MIC: >256 µg/mL
[17]
  Oxacillin MIC: ≅256 μg/ml
[18]
  Oxacillin MIC: >256 µg/mL
[19]
  Oxacillin MIC: 256 µg/mL
[20]
  Oxacillin MIC: 256 µg/mL
[21]
  Oxacillin MIC: 128 µg/mL
[22]
  Oxacillin MIC: >256 µg/mL
[23]
  Oxacillin MIC: >256 µg/mL
[24]
  Oxacillin MIC: >256 µg/mL
[25]
  Oxacillin MIC: 256 µg/mL
[26]
  Oxacillin MIC: 128 µg/mL
[27]
  Oxacillin MIC: 128 µg/mL
[28]
  Oxacillin MIC: >256 µg/mL
[29]
  Oxacillin MIC: >256 µg/mL
[30]
  Oxacillin MIC: >256 µg/mL
[31]
  Oxacillin MIC: 128 µg/mL
[32]
  Oxacillin MIC: 128 µg/mL
[33]
  Oxacillin MIC: 128 µg/mL
[34]
  Oxacillin MIC: >256 µg/mL
[35]
  Oxacillin MIC: >256 µg/mL
[36]
  Oxacillin MIC: >256 µg/mL
[37]
  Oxacillin MIC: >256 µg/mL
[38]
  Oxacillin MIC: >256 µg/mL
[39]
  Oxacillin MIC: >256 µg/mL
[40]
  Oxacillin MIC: 256 µg/mL
[41]
  Oxacillin MIC: 256 µg/mL
[42]
  Oxacillin MIC: 256 µg/mL
[43]
  Oxacillin MIC: >256 µg/mL
[44]
  Oxacillin MIC: >256 µg/mL
[45]
  Oxacillin MIC: >256 µg/mL
[46]
  Oxacillin MIC: 32 µg/mL
[47]
  Oxacillin MIC: 16 µg/mL
[48]
  Oxacillin MIC: 16 µg/mL
[49]
  Oxacillin MIC: 128 µg/mL
[50]
  Oxacillin MIC: 128 µg/mL
[51]
  Oxacillin MIC: 64 µg/mL
[52]
  Oxacillin MIC: 64 µg/mL
[53]
  Oxacillin MIC: 64 µg/mL
[54]
  Oxacillin MIC: 64 µg/mL
[55]
  Oxacillin MIC: >256 µg/mL
[56]
  Oxacillin MIC: >256 µg/mL
[57]
  Oxacillin MIC: >256 µg/mL
[58]
  Oxacillin MIC: <0.5 µg/mL
[59]
  Oxacillin MIC: <0.5 µg/mL
[60]
  Oxacillin MIC: <0.5 µg/mL
[61]
  Oxacillin MIC: <0.5 µg/mL
[62]
  Oxacillin MIC: <0.5 µg/mL
[63]
  Oxacillin MIC: <0.5 µg/mL
[64]
  Oxacillin MIC: <0.5 µg/mL
[65]
  Oxacillin MIC: <0.5 µg/mL
[66]
  Oxacillin MIC: <0.5 µg/mL
[67]
  Oxacillin MIC: <0.5 µg/mL
[68]
  Oxacillin MIC: <0.5 µg/mL
[69]
  Oxacillin MIC: <0.5 µg/mL

## COC(=O)C1(O)CC(O)C(OC(=O)c2cc(O)c(O)c(O)c2)C(OC(=O)c2cc(O)c(O)c(O)c2)C1 (centres unmarked) [Methyl 4,5-digalloylquinate, methyl 4,5-digalloylquinate]
  effect of combination use with oxacillin (words): follows
Listed as methyl 4,5-digalloylquinate
  effect of combination use with oxacillin (words): excellent

## O=C(OC1CC(O)(C(=O)O)CC(OC(=O)c2cc(O)c(O)c(O)c2)C1OC(=O)c1cc(O)c(O)c(O)c1)c1cc(O)c(O)c(O)c1 (centres unmarked) [compound 3]
[1]
  Oxacillin MIC: <0.5 µg/mL
[2]
  Oxacillin MIC: <0.5 µg/mL
[3]
  Oxacillin MIC: <0.5 µg/mL
[4]
  Oxacillin MIC: 128 µg/mL
[5]
  Oxacillin MIC: 32 µg/mL
[6]
  Oxacillin MIC: 64 µg/mL
[7]
  Oxacillin MIC: 2 µg/mL
[8]
  Oxacillin MIC: <0.5 µg/mL
[9]
  Oxacillin MIC: <0.5 µg/mL
[10]
  Oxacillin MIC: 4 µg/mL
[11]
  Oxacillin MIC: <0.5 µg/mL
[12]
  Oxacillin MIC: 1 µg/mL
[13]
  Oxacillin MIC: 32 µg/mL
[14]
  Oxacillin MIC: 4 µg/mL
[15]
  Oxacillin MIC: 2 µg/mL
[16]
  Oxacillin MIC: 64 µg/mL
[17]
  Oxacillin MIC: 8 µg/mL
[18]
  Oxacillin MIC: 8 µg/mL
[19]
  Oxacillin MIC: 4 µg/mL
[20]
  Oxacillin MIC: 2 µg/mL
[21]
  Oxacillin MIC: 4 µg/mL
[22]
  Oxacillin MIC: 16 µg/mL
[23]
  Oxacillin MIC: 4 µg/mL
[24]
  Oxacillin MIC: 2 µg/mL
[25]
  Oxacillin MIC: 8 µg/mL
[26]
  Oxacillin MIC: 4 µg/mL
[27]
  Oxacillin MIC: 8 µg/mL
[28]
  Oxacillin MIC: 8 µg/mL
[29]
  Oxacillin MIC: 2 µg/mL
[30]
  Oxacillin MIC: 2 µg/mL
[31]
  Oxacillin MIC: 4 µg/mL
[32]
  Oxacillin MIC: 2 µg/mL
[33]
  Oxacillin MIC: 4 µg/mL
[34]
  Oxacillin MIC: 8 µg/mL
[35]
  Oxacillin MIC: 4 µg/mL
[36]
  Oxacillin MIC: 4 µg/mL
[37]
  Oxacillin MIC: 32 µg/mL
[38]
  Oxacillin MIC: 8 µg/mL
[39]
  Oxacillin MIC: 8 µg/mL
[40]
  Oxacillin MIC: 4 µg/mL
[41]
  Oxacillin MIC: 8 µg/mL
[42]
  Oxacillin MIC: 4 µg/mL
[43]
  Oxacillin MIC: 32 µg/mL
[44]
  Oxacillin MIC: 4 µg/mL
[45]
  Oxacillin MIC: 4 µg/mL
[46]
  Oxacillin MIC: <0.5 µg/mL
[47]
  Oxacillin MIC: <0.5 µg/mL
[48]
  Oxacillin MIC: <0.5 µg/mL
[49]
  Oxacillin MIC: 1 µg/mL
[50]
  Oxacillin MIC: <0.5 µg/mL
[51]
  Oxacillin MIC: <0.5 µg/mL
[52]
  Oxacillin MIC: 1 µg/mL
[53]
  Oxacillin MIC: <0.5 µg/mL
[54]
  Oxacillin MIC: 1 µg/mL
[55]
  Oxacillin MIC: 8 µg/mL
[56]
  Oxacillin MIC: 4 µg/mL
[57]
  Oxacillin MIC: 4 µg/mL
[58]
  Oxacillin MIC: <0.5 µg/mL
[59]
  Oxacillin MIC: <0.5 µg/mL
[60]
  Oxacillin MIC: <0.5 µg/mL
[61]
  Oxacillin MIC: <0.5 µg/mL
[62]
  Oxacillin MIC: <0.5 µg/mL
[63]
  Oxacillin MIC: <0.5 µg/mL
[64]
  Oxacillin MIC: <0.5 µg/mL
[65]
  Oxacillin MIC: <0.5 µg/mL
[66]
  Oxacillin MIC: <0.5 µg/mL
[67]
  Oxacillin MIC: <0.5 µg/mL
[68]
  Oxacillin MIC: <0.5 µg/mL
[69]
  Oxacillin MIC: <0.5 µg/mL

Reference: patent publication US20060235076A1, “Medicinal composition for treating infection with drug-resistant staphylococcus aureus” (priority 2003, published 2006)
